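GI50 = concentration required for 50% inhibition of growth. At the TGI there is no net growth.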
How the values were obtained:
Experiment in all cases: growth of human tumour cells (NCI), 384-well format
786-0 renal = tested on: 786-0 renal
A498 renal = tested on: A498 renal
A549 NSCLC = tested on: A549 NSCLC
ACHN renal = tested on: ACHN renal
BT-549 breast = tested on: BT-549 breast
CAKI-1 renal = tested on: CAKI-1 renal
CCRF-CEM leukemia = tested on: CCRF-CEM leukemia
COLO 205 colon = tested on: COLO 205 colon
DU-145 prostate = tested on: DU-145 prostate
HCC-2998 colon = tested on: HCC-2998 colon
HCT-116 colon = tested on: HCT-116 colon
HCT-15 colon = tested on: HCT-15 colon
HL-60(TB) leukemia = tested on: HL-60(TB) leukemia
HOP-62 NSCLC = tested on: HOP-62 NSCLC
HOP-92 NSCLC = tested on: HOP-92 NSCLC
HS 578T breast = tested on: HS 578T breast
HT29 colon = tested on: HT29 colon
IGROV1 ovarian = tested on: IGROV1 ovarian
K-562 leukemia = tested on: K-562 leukemia
KM12 colon = tested on: KM12 colon
LOX IMVI melanoma = tested on: LOX IMVI melanoma
M14 melanoma = tested on: M14 melanoma
MALME-3M melanoma = tested on: MALME-3M melanoma
MCF7 breast = tested on: MCF7 breast
MDA-MB-231 breast = tested on: MDA-MB-231 breast
MDA-MB-435 melanoma = tested on: MDA-MB-435 melanoma
MDA-MB-468 breast = tested on: MDA-MB-468 breast
MOLT-4 leukemia = tested on: MOLT-4 leukemia
NCI-H226 lung = tested on: NCI-H226 lung
NCI-H23 lung = tested on: NCI-H23 lung
NCI-H322M lung = tested on: NCI-H322M lung
NCI-H460 NSCLC = tested on: NCI-H460 NSCLC
NCI-H522 lung = tested on: NCI-H522 lung
NCI/ADR-RES ovarian = tested on: NCI/ADR-RES ovarian
OVCAR-3 ovarian = tested on: OVCAR-3 ovarian
OVCAR-4 ovarian = tested on: OVCAR-4 ovarian
OVCAR-5 ovarian = tested on: OVCAR-5 ovarian
PC-3 prostate = tested on: PC-3 prostate
RPMI-8226 leukemia = tested on: RPMI-8226 leukemia
RXF 393 renal = tested on: RXF 393 renal
SF-268 CNS = tested on: SF-268 CNS
SF-295 CNS = tested on: SF-295 CNS
SF-539 CNS = tested on: SF-539 CNS
SK-MEL-2 melanoma = tested on: SK-MEL-2 melanoma
SK-MEL-28 melanoma = tested on: SK-MEL-28 melanoma
SK-MEL-5 melanoma = tested on: SK-MEL-5 melanoma
SK-OV-3 ovarian = tested on: SK-OV-3 ovarian
SN12C renal = tested on: SN12C renal
SNB-19 CNS = tested on: SNB-19 CNS
SNB-75 CNS = tested on: SNB-75 CNS
SR leukemia = tested on: SR leukemia
SW-620 colon = tested on: SW-620 colon
T-47D breast = tested on: T-47D breast
TK-10 renal = tested on: TK-10 renal
U251 glioblastoma = tested on: U251 glioblastoma
UACC-257 melanoma = tested on: UACC-257 melanoma
UACC-62 melanoma = tested on: UACC-62 melanoma
UO-31 renal = tested on: UO-31 renal

COc1cccc(Nc2ncnn3ccc(CN4CC[C@@H](N)[C@H](O)C4)c23)c1
GI50 ([…]-0 renal): 0.989 µM | TGI (786-0 renal): 14.4 µM | GI50 (A498 renal): 1.3 µM | TGI (A498 renal): 9 µM | GI50 (A549 NSCLC): 0.902 µM | TGI (A549 NSCLC): 14.4 µM | GI50 (ACHN renal): 0.0368 µM | TGI (ACHN renal): 5.84 µM | GI50 (BT-549 breast): 7.04 µM | TGI (BT-549 breast): 20.5 µM | GI50 (CAKI-1 renal): 0.295 µM | TGI (CAKI-1 renal): 7.12 µM | GI50 (CCRF-CEM leukemia): 14.7 µM | TGI (CCRF-CEM leukemia): 28 µM | GI50 (COLO 205 colon): 14.8 µM | TGI (COLO 205 colon): 28.2 µM | GI50 (DU-145 prostate): 1.11 µM | TGI (DU-145 prostate): 28.4 µM | GI50 (HCC-2998 colon): 12.5 µM | TGI (HCC-2998 colon): 25.5 µM | GI50 (HCT-116 colon): 12.3 µM | TGI (HCT-116 colon): 25.6 µM | GI50 (HCT-15 colon): 2.32 µM | TGI (HCT-15 colon): 32.7 µM | GI50 (HL-60(TB) leukemia): 17.6 µM | TGI (HL-60(TB) leukemia): 31.5 µM | GI50 (HOP-62 NSCLC): 2.7 µM | TGI (HOP-62 NSCLC): 30.2 µM | GI50 (HOP-92 NSCLC): 6.62 µM | TGI (HOP-92 NSCLC): 28.9 µM | GI50 (HS 578T breast): 1.49 µM | TGI (HS 578T breast): 6.24 µM | GI50 (HT29 colon): 12.8 µM | TGI (HT29 colon): 26.4 µM | TGI (IGROV1 ovarian): 0.512 µM | GI50 (K-562 leukemia): 0.0847 µM | TGI (K-562 leukemia): 0.228 µM | GI50 (KM12 colon): 3.54 µM | TGI (KM12 colon): 15.7 µM | GI50 (LOX IMVI melanoma): 7.68 µM | TGI (LOX IMVI melanoma): 20.4 µM | GI50 (M14 melanoma): 19 µM | TGI (M14 melanoma): 33.2 µM | GI50 (MALME-3M melanoma): 12.8 µM | TGI (MALME-3M melanoma): 25.5 µM | GI50 (MCF7 breast): 13.9 µM | TGI (MCF7 breast): 27.4 µM | GI50 (MDA-MB-231 breast): 1.99 µM | TGI (MDA-MB-231 breast): 25.4 µM | GI50 (MDA-MB-435 melanoma): 18.2 µM | TGI (MDA-MB-435 melanoma): 36.6 µM | GI50 (MDA-MB-468 breast): 0.0266 µM | TGI (MDA-MB-468 breast): 0.203 µM | GI50 (MOLT-4 leukemia): 0.8 µM | TGI (MOLT-4 leukemia): 13.9 µM | GI50 (NCI-H226 lung): 1.97 µM | TGI (NCI-H226 lung): 12.4 µM | GI50 (NCI-H23 lung): 2.42 µM | TGI (NCI-H23 lung): 16.8 µM | GI50 (NCI-H322M lung): 0.0313 µM | TGI (NCI-H322M lung): 0.941 µM | GI50 (NCI-H460 NSCLC): 11.3 µM | TGI (NCI-H460 NSCLC): 24.3 µM | TGI (NCI-H522 lung): 9.99 µM | GI50 (NCI/ADR-RES ovarian): 11.2 µM | TGI (NCI/ADR-RES ovarian): 27.6 µM | GI50 (OVCAR-3 ovarian): 0.0815 µM | TGI (OVCAR-3 ovarian): 21.8 µM | GI50 (OVCAR-4 ovarian): 24.8 µM | TGI (OVCAR-4 ovarian): > 100 µM | GI50 (OVCAR-5 ovarian): 0.686 µM | TGI (OVCAR-5 ovarian): 43.9 µM | GI50 (PC-3 prostate): 13.3 µM | TGI (PC-3 prostate): 87.7 µM | GI50 (RPMI-8226 leukemia): 16.4 µM | TGI (RPMI-8226 leukemia): 30.2 µM | GI50 (RXF 393 renal): 0.435 µM | TGI (RXF 393 renal): 3.21 µM | GI50 (SF-268 CNS): 4.4 µM | TGI (SF-268 CNS): 70.3 µM | GI50 (SF-295 CNS): 13.9 µM | TGI (SF-295 CNS): 30.9 µM | GI50 (SF-539 CNS): 1.55 µM | TGI (SF-539 CNS): 13.1 µM | GI50 (SK-MEL-2 melanoma): 26.7 µM | TGI (SK-MEL-2 melanoma): 41.5 µM | GI50 (SK-MEL-28 melanoma): 18.3 µM | TGI (SK-MEL-28 melanoma): 32.4 µM | GI50 (SK-MEL-5 melanoma): 15.6 µM | TGI (SK-MEL-5 melanoma): 29 µM | GI50 (SK-OV-3 ovarian): 0.0333 µM | TGI (SK-OV-3 ovarian): 0.607 µM | GI50 (SN12C renal): 0.18 µM | TGI (SN12C renal): 12 µM | GI50 (SNB-19 CNS): 15.4 µM | TGI (SNB-19 CNS): 83.6 µM | GI50 (SNB-75 CNS): 0.247 µM | TGI (SNB-75 CNS): 1.37 µM | GI50 (SR leukemia): 12.5 µM | TGI (SR leukemia): 25.2 µM | GI50 (SW-620 colon): 17.5 µM | TGI (SW-620 colon): 32.5 µM | GI50 (T-47D breast): 15.8 µM | TGI (T-47D breast): 30.2 µM | GI50 (TK-10 renal): 0.0524 µM | TGI (TK-10 renal): 1.27 µM | GI50 (U251 glioblastoma): 12.9 µM | TGI (U251 glioblastoma): 26.4 µM | GI50 (UACC-257 melanoma): 11.3 µM | TGI (UACC-257 melanoma): 23.5 µM | GI50 (UACC-62 melanoma): 16.1 µM | TGI (UACC-62 melanoma): 29.8 µM | GI50 (UO-31 renal): 1.1 µM | TGI (UO-31 renal): 7.47 µM
